This is an account of results in ChEMBL document CHEMBL3991601, “The target landscape of clinical kinase drugs” (Science, 2017).

The structures appear in SMILES notation. The source made the active and inactive calls.

As usually defined, the Kd is the concentration at which binding is half-saturated.

Assay [1] concerns the target Serine/threonine-protein kinase ATR (Homo sapiens, UniProt Q13535).
Assay [2] has as its target Cell division cycle 7-related protein kinase (Homo sapiens, UniProt O00311).
Assay [3] has as its target Proto-oncogene tyrosine-protein kinase receptor Ret (Homo sapiens, UniProt P07949).
Assay [4] deals with Serine/threonine-protein kinase Nek7 (Homo sapiens, UniProt Q8TDX7).
The target in assay [5] is Glycogen synthase kinase-3 beta (Homo sapiens, UniProt P49841).
Assay [6] concerns the target T1, Cyclin-dependent kinase-like 5 (Homo sapiens, UniProt O76039).
T1 sequence (O76039 whole entry): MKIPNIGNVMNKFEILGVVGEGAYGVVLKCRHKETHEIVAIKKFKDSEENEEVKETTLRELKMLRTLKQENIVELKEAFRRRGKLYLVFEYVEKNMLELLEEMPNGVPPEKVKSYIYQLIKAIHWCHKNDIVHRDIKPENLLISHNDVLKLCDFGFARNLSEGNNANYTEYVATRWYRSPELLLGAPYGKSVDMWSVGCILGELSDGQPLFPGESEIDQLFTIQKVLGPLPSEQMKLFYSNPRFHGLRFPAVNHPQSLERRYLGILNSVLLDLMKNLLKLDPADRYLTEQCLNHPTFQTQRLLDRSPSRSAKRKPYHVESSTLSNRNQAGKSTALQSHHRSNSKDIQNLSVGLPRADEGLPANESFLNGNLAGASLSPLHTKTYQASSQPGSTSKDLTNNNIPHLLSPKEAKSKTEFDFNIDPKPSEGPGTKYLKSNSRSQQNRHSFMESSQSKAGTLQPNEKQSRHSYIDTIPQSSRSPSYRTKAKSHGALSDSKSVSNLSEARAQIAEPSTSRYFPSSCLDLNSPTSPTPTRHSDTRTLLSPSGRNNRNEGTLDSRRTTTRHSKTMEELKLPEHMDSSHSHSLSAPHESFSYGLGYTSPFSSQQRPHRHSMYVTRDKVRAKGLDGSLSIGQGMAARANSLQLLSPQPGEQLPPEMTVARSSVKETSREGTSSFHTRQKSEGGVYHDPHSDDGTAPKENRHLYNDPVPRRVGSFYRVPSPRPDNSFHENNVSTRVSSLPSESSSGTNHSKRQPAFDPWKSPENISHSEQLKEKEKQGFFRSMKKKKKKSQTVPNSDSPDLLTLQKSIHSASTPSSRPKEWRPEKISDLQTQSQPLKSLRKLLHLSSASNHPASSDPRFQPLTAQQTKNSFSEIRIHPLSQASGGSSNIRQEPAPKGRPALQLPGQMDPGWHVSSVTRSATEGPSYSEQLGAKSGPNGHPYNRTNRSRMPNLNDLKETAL

The target in assay [7] is Dual specificity protein kinase CLK2 (Homo sapiens, UniProt P49760).
In assay [8] the target is DNA topoisomerase 2-alpha (Homo sapiens, UniProt P11388).
For assay [9], the target named is Epidermal growth factor receptor (Homo sapiens, UniProt P00533).
Assay [10] has as its target T2, Isoleucine--tRNA ligase, mitochondrial (Homo sapiens, UniProt Q9NSE4).
T2 sequence (Q9NSE4 whole entry): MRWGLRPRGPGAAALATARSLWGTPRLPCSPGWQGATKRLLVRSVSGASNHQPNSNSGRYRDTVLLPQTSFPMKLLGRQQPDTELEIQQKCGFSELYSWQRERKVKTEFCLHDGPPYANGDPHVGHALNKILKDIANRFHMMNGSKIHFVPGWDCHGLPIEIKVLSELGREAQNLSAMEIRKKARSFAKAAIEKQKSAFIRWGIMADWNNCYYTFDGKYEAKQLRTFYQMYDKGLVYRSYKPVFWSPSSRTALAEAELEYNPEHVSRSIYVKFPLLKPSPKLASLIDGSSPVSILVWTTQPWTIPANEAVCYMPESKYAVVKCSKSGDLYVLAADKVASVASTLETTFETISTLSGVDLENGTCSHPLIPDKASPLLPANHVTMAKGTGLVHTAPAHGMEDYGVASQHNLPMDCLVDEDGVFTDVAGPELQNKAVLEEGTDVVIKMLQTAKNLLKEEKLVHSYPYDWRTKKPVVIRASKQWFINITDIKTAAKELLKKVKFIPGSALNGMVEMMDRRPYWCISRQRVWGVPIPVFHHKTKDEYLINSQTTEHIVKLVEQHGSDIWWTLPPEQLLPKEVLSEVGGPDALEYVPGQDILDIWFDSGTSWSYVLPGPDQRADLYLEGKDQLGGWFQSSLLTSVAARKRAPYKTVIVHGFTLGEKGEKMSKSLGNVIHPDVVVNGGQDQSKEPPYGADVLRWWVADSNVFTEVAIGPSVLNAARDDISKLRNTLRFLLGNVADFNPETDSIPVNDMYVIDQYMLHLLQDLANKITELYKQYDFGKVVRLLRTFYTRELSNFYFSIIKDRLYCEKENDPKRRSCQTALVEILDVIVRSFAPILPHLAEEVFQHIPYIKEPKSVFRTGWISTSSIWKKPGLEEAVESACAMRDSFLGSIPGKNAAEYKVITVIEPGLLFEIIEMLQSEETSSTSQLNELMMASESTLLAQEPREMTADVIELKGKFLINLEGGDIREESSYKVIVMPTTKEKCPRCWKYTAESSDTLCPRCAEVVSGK

Assay [11] deals with Membrane-associated progesterone receptor component 1 (Homo sapiens, UniProt O00264).
Assay [12] deals with Phosphatidylethanolamine-binding protein 1 (Homo sapiens, UniProt P30086).
Assay [13] has as its target Dual specificity protein kinase CLK4 (Homo sapiens, UniProt Q9HAZ1).
Assay [14] addresses Mitogen-activated protein kinase 14 (Homo sapiens, UniProt Q16539).
Assay [15] addresses Dual specificity testis-specific protein kinase 1 (Homo sapiens, UniProt Q15569).
Assay [16] has as its target MAP kinase-activated protein kinase 3 (Homo sapiens, UniProt Q16644).
The target in assay [17] is T3, UMP-CMP kinase (Homo sapiens, UniProt P30085).
T3 sequence (P30085 whole entry): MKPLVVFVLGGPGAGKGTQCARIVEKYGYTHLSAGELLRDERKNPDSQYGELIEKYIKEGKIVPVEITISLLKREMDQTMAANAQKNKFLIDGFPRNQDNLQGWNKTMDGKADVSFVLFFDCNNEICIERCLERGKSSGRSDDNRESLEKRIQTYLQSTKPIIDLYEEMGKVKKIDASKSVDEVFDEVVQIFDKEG
Note: in the data inactive means no Kd found up to 30 µM.

Sequence of DNA topoisomerase 2-alpha (P11388 whole entry): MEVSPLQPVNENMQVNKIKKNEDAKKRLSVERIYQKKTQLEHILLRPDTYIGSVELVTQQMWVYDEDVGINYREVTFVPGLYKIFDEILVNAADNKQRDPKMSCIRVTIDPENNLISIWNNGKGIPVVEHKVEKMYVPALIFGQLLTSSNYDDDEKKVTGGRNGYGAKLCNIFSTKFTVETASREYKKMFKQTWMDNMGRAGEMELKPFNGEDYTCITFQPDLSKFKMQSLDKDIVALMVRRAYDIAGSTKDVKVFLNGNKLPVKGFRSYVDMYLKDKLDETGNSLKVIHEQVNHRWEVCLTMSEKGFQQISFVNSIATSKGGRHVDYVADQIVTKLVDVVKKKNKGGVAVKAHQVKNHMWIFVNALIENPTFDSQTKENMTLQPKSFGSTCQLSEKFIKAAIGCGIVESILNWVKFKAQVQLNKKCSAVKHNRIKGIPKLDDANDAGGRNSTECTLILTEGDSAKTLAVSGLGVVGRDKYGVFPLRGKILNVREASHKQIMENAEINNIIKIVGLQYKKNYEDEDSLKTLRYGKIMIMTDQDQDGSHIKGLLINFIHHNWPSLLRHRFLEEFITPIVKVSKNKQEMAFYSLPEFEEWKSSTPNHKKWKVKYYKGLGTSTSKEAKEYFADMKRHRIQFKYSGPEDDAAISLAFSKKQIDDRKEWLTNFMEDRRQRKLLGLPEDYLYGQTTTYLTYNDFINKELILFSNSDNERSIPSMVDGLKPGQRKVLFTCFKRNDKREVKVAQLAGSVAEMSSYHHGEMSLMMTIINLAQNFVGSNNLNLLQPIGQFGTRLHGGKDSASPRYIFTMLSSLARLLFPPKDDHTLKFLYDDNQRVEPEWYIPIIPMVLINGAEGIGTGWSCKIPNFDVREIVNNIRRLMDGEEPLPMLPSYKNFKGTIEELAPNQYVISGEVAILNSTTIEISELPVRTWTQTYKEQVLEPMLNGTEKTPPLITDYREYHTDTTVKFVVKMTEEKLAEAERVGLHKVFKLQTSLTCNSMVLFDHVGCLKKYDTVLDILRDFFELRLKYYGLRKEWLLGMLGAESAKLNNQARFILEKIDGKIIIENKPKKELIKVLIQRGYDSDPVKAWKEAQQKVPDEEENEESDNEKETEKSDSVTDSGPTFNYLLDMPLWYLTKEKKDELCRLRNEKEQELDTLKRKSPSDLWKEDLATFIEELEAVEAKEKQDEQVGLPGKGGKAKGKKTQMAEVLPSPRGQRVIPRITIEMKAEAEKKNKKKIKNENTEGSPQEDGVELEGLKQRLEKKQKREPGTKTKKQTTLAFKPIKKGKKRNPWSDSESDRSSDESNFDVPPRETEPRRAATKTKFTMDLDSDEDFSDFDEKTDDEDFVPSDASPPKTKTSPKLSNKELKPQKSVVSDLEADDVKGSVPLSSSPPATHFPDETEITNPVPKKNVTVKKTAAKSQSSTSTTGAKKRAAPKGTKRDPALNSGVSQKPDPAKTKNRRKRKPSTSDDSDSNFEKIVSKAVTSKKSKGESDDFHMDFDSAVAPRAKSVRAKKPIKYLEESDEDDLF
Sequence of Phosphatidylethanolamine-binding protein 1 (P30086 whole entry): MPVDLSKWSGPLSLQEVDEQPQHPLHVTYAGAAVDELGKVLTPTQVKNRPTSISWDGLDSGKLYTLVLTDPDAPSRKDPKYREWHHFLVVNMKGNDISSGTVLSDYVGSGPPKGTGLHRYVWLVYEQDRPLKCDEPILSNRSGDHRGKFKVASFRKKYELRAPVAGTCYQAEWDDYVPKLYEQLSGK
Sequence of Membrane-associated progesterone receptor component 1 (O00264 whole entry): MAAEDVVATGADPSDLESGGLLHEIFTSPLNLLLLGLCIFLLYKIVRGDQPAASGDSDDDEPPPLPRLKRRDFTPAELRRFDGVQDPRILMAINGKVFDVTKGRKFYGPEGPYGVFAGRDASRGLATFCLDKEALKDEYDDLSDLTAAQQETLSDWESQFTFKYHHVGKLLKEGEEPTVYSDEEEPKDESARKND
Sequence of Proto-oncogene tyrosine-protein kinase receptor Ret (P07949 whole entry): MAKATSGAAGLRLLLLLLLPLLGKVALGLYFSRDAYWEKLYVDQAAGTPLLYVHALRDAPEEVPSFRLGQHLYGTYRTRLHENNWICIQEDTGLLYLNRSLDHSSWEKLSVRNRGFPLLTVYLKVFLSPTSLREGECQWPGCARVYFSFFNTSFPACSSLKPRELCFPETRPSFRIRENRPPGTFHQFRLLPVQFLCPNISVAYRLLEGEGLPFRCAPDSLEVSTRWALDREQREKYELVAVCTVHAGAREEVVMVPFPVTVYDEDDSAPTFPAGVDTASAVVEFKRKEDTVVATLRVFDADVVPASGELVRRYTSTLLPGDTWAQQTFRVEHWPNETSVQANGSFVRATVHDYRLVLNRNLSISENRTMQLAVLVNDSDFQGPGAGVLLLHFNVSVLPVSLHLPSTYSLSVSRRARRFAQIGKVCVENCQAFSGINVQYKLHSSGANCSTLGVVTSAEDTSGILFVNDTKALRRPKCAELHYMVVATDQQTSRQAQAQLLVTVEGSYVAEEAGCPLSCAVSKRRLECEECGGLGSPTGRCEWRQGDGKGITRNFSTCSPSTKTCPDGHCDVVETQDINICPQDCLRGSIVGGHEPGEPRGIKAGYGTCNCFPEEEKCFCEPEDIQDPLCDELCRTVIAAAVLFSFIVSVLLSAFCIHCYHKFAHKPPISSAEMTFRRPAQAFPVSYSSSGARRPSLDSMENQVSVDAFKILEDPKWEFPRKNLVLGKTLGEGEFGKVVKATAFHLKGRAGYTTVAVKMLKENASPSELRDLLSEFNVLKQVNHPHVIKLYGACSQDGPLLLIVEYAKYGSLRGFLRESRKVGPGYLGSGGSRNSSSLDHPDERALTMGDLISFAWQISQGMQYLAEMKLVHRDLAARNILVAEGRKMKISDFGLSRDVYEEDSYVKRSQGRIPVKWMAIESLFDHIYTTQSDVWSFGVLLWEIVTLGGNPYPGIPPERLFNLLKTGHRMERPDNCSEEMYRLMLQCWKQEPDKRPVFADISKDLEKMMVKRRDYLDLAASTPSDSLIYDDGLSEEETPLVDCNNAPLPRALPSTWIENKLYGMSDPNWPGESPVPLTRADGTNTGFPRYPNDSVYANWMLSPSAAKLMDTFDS
Sequence of Dual specificity testis-specific protein kinase 1 (Q15569 whole entry): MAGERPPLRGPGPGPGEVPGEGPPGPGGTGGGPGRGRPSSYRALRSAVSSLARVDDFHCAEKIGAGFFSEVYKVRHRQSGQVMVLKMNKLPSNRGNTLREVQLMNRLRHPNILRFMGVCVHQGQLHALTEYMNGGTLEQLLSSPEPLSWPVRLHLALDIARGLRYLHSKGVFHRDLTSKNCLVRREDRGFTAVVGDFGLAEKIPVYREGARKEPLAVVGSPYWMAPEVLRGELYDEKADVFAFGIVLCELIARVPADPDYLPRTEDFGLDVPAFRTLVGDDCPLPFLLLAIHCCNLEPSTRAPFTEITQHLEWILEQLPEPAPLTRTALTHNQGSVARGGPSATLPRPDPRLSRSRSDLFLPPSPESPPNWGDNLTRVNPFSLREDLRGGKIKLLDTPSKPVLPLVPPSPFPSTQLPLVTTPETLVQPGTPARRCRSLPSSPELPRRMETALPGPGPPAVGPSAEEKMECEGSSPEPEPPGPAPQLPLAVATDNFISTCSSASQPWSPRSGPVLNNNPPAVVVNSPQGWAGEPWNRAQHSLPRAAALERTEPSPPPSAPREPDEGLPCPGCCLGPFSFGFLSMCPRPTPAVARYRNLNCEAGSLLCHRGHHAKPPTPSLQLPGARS
Sequence of Dual specificity protein kinase CLK4 (Q9HAZ1 whole entry): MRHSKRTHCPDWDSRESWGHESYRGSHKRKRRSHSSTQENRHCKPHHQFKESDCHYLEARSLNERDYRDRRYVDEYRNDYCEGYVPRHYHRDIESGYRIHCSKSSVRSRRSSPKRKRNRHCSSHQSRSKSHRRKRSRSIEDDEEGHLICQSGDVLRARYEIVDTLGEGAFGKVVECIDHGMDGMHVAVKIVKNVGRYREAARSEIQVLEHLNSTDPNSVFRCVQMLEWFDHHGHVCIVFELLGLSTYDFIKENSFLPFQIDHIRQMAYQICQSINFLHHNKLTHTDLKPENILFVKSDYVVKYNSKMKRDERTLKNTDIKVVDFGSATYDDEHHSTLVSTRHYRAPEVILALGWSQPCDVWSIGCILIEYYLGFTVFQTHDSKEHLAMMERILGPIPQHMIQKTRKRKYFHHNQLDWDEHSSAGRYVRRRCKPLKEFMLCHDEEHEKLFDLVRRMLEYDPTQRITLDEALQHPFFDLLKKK
Sequence of MAP kinase-activated protein kinase 3 (Q16644 whole entry): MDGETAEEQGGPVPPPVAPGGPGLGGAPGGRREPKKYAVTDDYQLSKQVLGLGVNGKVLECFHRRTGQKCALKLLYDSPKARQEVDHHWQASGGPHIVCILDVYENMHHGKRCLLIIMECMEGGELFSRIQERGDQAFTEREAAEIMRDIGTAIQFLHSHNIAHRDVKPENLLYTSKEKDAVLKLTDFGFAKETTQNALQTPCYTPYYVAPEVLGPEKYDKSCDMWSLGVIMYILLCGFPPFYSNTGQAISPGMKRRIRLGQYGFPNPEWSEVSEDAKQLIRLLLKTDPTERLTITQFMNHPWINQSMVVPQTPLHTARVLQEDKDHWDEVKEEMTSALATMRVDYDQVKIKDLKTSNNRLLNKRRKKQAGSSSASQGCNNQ
Sequence of Glycogen synthase kinase-3 beta (P49841 whole entry): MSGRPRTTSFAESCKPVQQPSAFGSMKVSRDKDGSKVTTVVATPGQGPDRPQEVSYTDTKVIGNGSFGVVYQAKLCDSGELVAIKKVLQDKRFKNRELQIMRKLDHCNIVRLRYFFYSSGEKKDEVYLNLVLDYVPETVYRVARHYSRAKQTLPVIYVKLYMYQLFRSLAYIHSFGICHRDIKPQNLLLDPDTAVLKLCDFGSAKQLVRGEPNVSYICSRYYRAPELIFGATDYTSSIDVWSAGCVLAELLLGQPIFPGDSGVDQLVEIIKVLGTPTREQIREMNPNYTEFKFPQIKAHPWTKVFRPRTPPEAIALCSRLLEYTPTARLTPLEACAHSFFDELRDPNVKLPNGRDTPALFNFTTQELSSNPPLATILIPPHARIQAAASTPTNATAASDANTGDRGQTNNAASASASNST

As for `Cc1cc(Nc2nc(N[C@@H](C)c3ncc(F)cn3)ncc2Cl)n[nH]1` [AZD-1480], the Kd in assay [1] is > 30 µM (inactive); in assay [2] it was > 30 µM (inactive); in assay [3] it was 0.238 µM (active); in assay [4], > 30 µM (inactive); in [5], > 30 µM (inactive); in assay [6], > 30 µM (inactive). Besides, the Kd in [7], in assay [8], in assay [9], in [10], in [11] and in assay [12] was > 30 µM (inactive) in each case. The Kd in assay [13], in assay [14], in assay [15], in assay [16] and in [17] was > 30 µM (inactive) in each case.

As to `C#Cc1cccc(Nc2ncnc3cc4c(cc23)OCCOCCOCCO4)c1` [ICOTINIB], the Kd in assay [1], in assay [2], in assay [3], in assay [4], in assay [5] and in assay [6] was > 30 µM (inactive) each time. The Kd in assay [7] is > 30 µM (inactive); in [8], > 30 µM (inactive); in assay [9] it was 10.1 µM (active); in assay [10], > 30 µM (inactive); in assay [11], > 30 µM (inactive); in assay [12] it was > 30 µM (inactive). The Kd in [13], in [14], in assay [15], in [16] and in assay [17] was > 30 µM (inactive) in each case.

Turning to `NC(=O)c1ccc(N(C(N)=O)c2c(F)cccc2F)nc1-c1ccc(F)cc1F` [VX-702], the Kd in [1], in assay [3], in [4], in assay [5], in assay [6] and in [7] was > 30 µM (inactive) each time. The Kd in assay [8], in assay [9], in [11], in assay [12], in [13] and in [15] was > 30 µM (inactive) throughout. Also, the Kd in assay [16] and in assay [17] was > 30 µM (inactive) in each case.

Consider `S=C(NCc1ccc2c(c1)OCO2)N1CCN(c2ncnc3c2oc2ccccc23)CC1` [AMUVATINIB], for which the Kd in [2], in assay [3], in [4], in [5], in assay [7] and in [8] was > 30 µM (inactive) each time. The Kd in assay [9], in assay [10], in [11], in assay [12], in [13] and in [14] was > 30 µM (inactive) each time. Besides, the Kd in assay [16] and in assay [17] was > 30 µM (inactive) throughout.

Turning to `C=CC(=O)Nc1cc(Nc2nccc(-c3cn(C)c4ccccc34)n2)c(OC)cc1N(C)CCN(C)C` [OSIMERTINIB], the Kd in assay [3], in [4], in assay [5], in [6], in assay [7] and in assay [8] was > 30 µM (inactive) each time. Besides, the Kd in assay [10], in [11], in assay [12], in assay [13], in [14] and in assay [16] was > 30 µM (inactive) in each case. In assay [17], the Kd is > 30 µM (inactive).
